We go through 4 compounds from ChEMBL document CHEMBL5108065 (J Med Chem, 2022).

Data set [1] can be described thus: Solubility of the compound in FeSSIF at pH 5.8. Format: physicochemical. Particulars: simulated gi fluid.
The nature of data set [2]: Metabolic stability in human hepatocytes assessed as intrinsic clearance measured per 10^6 cells. Format: functional, Hepatocyte.
The target of data set [3] is T1, Renin (Homo sapiens, UniProt P00797).
T1 sequence (P00797 whole entry): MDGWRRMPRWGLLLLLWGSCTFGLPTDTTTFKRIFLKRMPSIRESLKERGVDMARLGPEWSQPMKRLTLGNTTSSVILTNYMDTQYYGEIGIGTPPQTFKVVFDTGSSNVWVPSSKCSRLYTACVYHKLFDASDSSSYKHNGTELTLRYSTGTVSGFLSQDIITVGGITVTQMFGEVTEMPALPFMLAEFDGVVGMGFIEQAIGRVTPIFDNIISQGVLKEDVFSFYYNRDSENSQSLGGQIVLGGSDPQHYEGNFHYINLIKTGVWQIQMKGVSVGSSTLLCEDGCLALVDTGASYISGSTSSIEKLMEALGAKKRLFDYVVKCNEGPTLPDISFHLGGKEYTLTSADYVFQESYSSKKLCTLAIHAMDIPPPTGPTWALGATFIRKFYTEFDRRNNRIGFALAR
Briefly: Inhibition of human renin.

Data set [4] concerns the target Plasmepsin X (Plasmodium falciparum (isolate 3D7), UniProt Q8IAS0). The data set is described as follows: biochemical.
Description: Inhibition of Plasmodium falciparum recombinant C-terminal TEV cleavable 8his-tagged PMX by FRET assay
The target in data set [5] is Cathepsin D (Homo sapiens, UniProt P07339). Briefly: Inhibition of human cathepsin D.
Cathepsin D, sequence (P07339 65-162 limits assumed): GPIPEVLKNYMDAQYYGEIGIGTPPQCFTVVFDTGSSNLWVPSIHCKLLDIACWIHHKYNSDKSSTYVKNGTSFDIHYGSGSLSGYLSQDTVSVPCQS
Cathepsin D, sequence (P07339 169-412 limits assumed): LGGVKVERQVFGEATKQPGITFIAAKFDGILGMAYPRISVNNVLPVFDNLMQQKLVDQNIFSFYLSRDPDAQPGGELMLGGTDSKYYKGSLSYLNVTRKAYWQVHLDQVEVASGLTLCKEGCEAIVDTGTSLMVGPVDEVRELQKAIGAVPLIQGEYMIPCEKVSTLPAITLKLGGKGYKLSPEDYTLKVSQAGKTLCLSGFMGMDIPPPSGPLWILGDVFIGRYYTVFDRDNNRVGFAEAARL
Data set [6] in a line: Lipophilicity, log D of the compound. Format: physicochemical. Particulars: octanol/water.
The species entered for data set [7] is Homo sapiens. The data set is described as follows: Inhibition of BACE (unknown origin) at 10 uM relative to control.
The test system of data set [8] is Plasmodium falciparum. Briefly: Antimalarial activity against ELQ300 resistant Plasmodium falciparum Dd2 harbouring pfcytB mutated loci assessed as inhibition of parasite growth pretreated for 48 hrs followed by [3H]-hypoxanthine addition measured after 24 hrs by scintillation counting method. Format: functional, organism-based.
Data set [9] has as its system Plasmodium falciparum. The data set is described as follows: Antiplasmodial activity against sensitive Plasmodium falciparum NF54 infected in human red blood cells assessed as reduction in [3H]-hypoxanthine incorporation pretreated for 48 hrs followed by [3H]-hypoxanthine addition measured after 24 hrs by scintillation counting method. Format: functional, organism-based.

The nature of data set [10]: Inhibition of Plasmodium falciparum PMV by FRET assay.
Data set [11] relates to Plasmodium falciparum. The data set is described as follows: Antimalarial activity against DDD107498 resistant Plasmodium falciparum Dd2 harbouring pfeef2 mutated loci assessed as inhibition of parasite growth pretreated for 48 hrs followed by [3H]-hypoxanthine addition measured after 24 hrs by scintillation counting method. Format: functional, organism-based.
In data set [12] the test system is Plasmodium falciparum. The data set is described as follows: Antimalarial activity against DSM265 resistant Plasmodium falciparum Dd2 harbouring pf-dhodh mutated loci assessed as inhibition of parasite growth pretreated for 48 hrs followed by [3H]-hypoxanthine addition measured after 24 hrs by scintillation counting method. Format: functional, organism-based.

Data set [13] can be described thus: Inhibition of Plasmodium vivax PMX by FRET assay.
In data set [14] the test system is Plasmodium falciparum. The data set is described as follows: Antimalarial activity against KAF156 resistant Plasmodium falciparum Dd2 harbouring pf-carl mutated loci assessed as inhibition of parasite growth pretreated for 48 hrs followed by [3H]-hypoxanthine addition measured after 24 hrs by scintillation counting method. Format: functional, organism-based.
Data set [15] has as its system Plasmodium falciparum. Briefly: Antimalarial activity against Plasmodium falciparum Dd2048 harbouring pfpi4k mutated loci assessed as inhibition of parasite growth pretreated for 48 hrs followed by [3H]-hypoxanthine addition measured after 24 hrs by scintillation counting method. Format: functional, organism-based.
The subject of data set [16] is Plasmodium falciparum. Briefly: Antimalarial activity against Plasmodium falciparum K1 harbouring Pf-crt, Pf-mdrl,Pf-dhfr, Pf-dhps mutated loci assessed as inhibition of parasite growth pretreated for 48 hrs followed by [3H]-hypoxanthine addition measured after 24 hrs by scintillation counting method. Format: functional, organism-based.
In data set [17] the test system is Plasmodium falciparum. Briefly: Antimalarial activity against Plasmodium falciparum TM90C2b harbouring Pf-crt, Pf-mdrl,Pfd-hfr, Pf-cytbQ0 mutated loci assessed as inhibition of parasite growth pretreated for 48 hrs followed by [3H]-hypoxanthine addition measured after 24 hrs by scintillation counting method. Format: functional, organism-based.
Data set [18] in a line: Inhibition of BACE (unknown origin). On the set-up: species or system Homo sapiens.

Converted amounts (≈) assume the structure as drawn.

Plasmepsin X, sequence (Q8IAS0 whole entry): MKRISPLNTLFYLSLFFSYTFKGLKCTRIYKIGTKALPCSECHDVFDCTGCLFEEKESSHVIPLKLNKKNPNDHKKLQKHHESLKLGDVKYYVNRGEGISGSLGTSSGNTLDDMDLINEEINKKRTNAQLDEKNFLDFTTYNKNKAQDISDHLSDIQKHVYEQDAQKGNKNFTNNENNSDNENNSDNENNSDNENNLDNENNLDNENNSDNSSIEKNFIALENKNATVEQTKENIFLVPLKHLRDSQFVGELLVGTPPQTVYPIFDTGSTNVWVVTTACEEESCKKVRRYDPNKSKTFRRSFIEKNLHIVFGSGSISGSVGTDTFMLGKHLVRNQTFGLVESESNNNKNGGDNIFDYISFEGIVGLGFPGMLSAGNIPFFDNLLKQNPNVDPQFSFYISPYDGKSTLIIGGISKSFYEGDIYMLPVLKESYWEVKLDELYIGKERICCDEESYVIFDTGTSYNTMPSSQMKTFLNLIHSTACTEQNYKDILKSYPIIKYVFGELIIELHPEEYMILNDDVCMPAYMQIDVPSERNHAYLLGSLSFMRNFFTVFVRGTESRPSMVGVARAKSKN

In general, solubility refers to the dissolved amount per volume that the medium holds. Low values mean a poorly soluble substance, high ones a readily soluble substance. As usually defined, the IC50 is the concentration needed to halve the response being measured. One may read the logD as the decadic logarithm of the distribution of all forms, ionised or not, between an organic phase and buffer at a given pH. A word on the inhibition: it is the change of the read-out against control, counted positive when it falls. The low end stands for a response near the control, the high end for a response far below the control. As to `C[C@@]1(c2cccc(Nc3ccc(C4CC4)nc3)c2Cl)CC(=O)N(C2CCOCC2)C(=N)N1`, the solubility in [1] was 1161 µM (≈ 527 µg/mL). For the same compound, the intrinsic clearance in data set [2] turned out to be 3 µL/min. Moreover, the IC50 in [3] was found to be 1070 nM; in [4], 37 nM; in [5] it was 1190 nM. In [6], this compound had a logD of 2.1. The inhibition in data set [7] was 52%.

As for `C[C@@]1(c2cccc(Nc3ccccc3)c2Cl)CC(=O)N(C2CCOCC2)C(=N)N1`, the IC50 in data set [8] was found to be 96 nM; in data set [9], 107 nM; in [10], 2700 nM; in data set [11], 82 nM; in data set [12], 78 nM; in [4], 15 nM. Further, the IC50 was found to be 58 nM in data set [5]; 31 nM in data set [13]; 83 nM in data set [14]; 87 nM in data set [15]; 112 nM in [16]; 62 nM in data set [17]. The same compound displayed a solubility in [1] of 1057 µM (≈ 436 µg/mL). Further, the intrinsic clearance in [2] came to 28 µL/min. In [6], this compound showed a logD of 2.2.

As to `C[C@@]1(c2cccc(NC(=O)c3ccccc3)c2Cl)CC(=O)N(C2CCOCC2)C(=N)N1`, the intrinsic clearance in [2] is 4 µL/min. Besides, the values for the IC50 in data set [10], in [4] and in [5] were over 5000 nM, 32 nM and over 10000 nM, respectively. In addition, in [6], the logD worked out at 1.2.

`[H]/N=C1\N[C@](C)(c2cccc(Nc3cnc(C4CC4)nc3)c2Cl)CC(=O)N1[C@H]1CCO[C@@H](C)C1` returned a solubility in [1] of 1372 µM (≈ 643 µg/mL). In addition, the intrinsic clearance in data set [2] amounted to 4 µL/min. The IC50 is 2360 nM in data set [3], 9 nM in [4], 215 nM in data set [5] and over 10000 nM in [18]. For the same compound, the logD in [6] came out at 2.
